# Where “and” joins values, the source holds several entries; their conditions need not be identical. Identical values can stand only once.
# Columns and labels:
# [1] = System adherence test (empty perfusion chamber, maternal circuit only); format: in vitro ADME; details: % of initial concentration, 5 μM in PM, no placental tissue, 240 min, n = 3
# Protocol: The dissolution and adherence of the compounds to the perfusion equipment and to the tubing system was assessed before starting perfusions with human placentae. […] The compounds were directly dissolved in PM at a final concentration of 5 μM (100 mL reservoir) and individually tested in three independent experiments (n = 3).
# [2] = system: placental tissue
# Protocol: The stability of volumes in each reservoir ensured the integrity of the circuits and served for the detection of fetal-maternal (FM) leaks (≤4 mL/h). Throughout the perfusion additional quality control measures included a physiological pH-range (7.2 ± 0.1) and a controlled fetal perfusion pressure (≤ 70 mmHg). Samples were taken at defined timepoints over a 240 min period, immediately centrifuged, and stored in glass micro-inserts (VWR) at −80°C for bioanalytical analysis. A blood gas analysis (pH, pO2, pCO2, glucose, lactate; ABL800 FLEX) of fetal and maternal samples was performed to ensure viability and metabolic activity of placental tissue during perfusion. The production of the placental hormones beta-human chorionic gonadotropin (β-hCG) and leptin was monitored by standard ELISA to assess tissue functionality ex vivo [see ([Spiess et al., 2022a]) and references therein]. For β-hCG, flat-bottom microplates were coated with rabbit polyclonal anti-hCG antibody (Agilent Dako) at a 1:1′000 dilution and the mouse monoclonal anti-hCG (abcam; 1:5′000) served as secondary antibody. The peptide hormone hCG (Lucerna-Chem) was used as reference standard; standard final concentrations of between 100 mU/mL and 2.5 mU/mL were prepared by serial dilution in seven steps and used in each plate. The goat anti-mouse-IgG-horseradish peroxidase conjugate (abcam) antibody was used at a 1:5′000 dilution. The substrate consisted of O-phenylenediamine dihydrochloride. […] For leptin, microtiter plates were coated with mouse monoclonal anti-human leptin/OB (R&D Systems; 1:250). The second antibody was biotinylated monoclonal mouse anti-human leptin/OB (R&D Systems), used at a dilution of 1:1′000. The standard was recombinant human leptin (R&D Systems); standard final concentrations of between 2′000 pg/mL and 15.6 pg/mL were prepared by serial 1:2 dilution in seven steps and used in each plate. […] The conjugate streptavidin-horseradish peroxidase (Southern Biotechnology Associates, 1:4′000) was added and the plate incubated for 60 min. For the development, ready-to-use tetramethylbenzidine substrate solution (Thermo Fischer) was used.
# Concentrations in the placental perfusion profiles (Figure 2) and system adherence tests (Figure 4) were expressed as a percentage (%) of the maternal concentration at the beginning of the perfusion, whereby the maternal concentration, measured in the maternal reservoir, was adjusted to the total volume of the full maternal circuit (maternal reservoir and dead volume of the system). The FM concentration ratio (FM ratio; Figure 3) was calculated for each timepoint and plotted against the perfusion time (min). The final recovery (%) is the sum of the amounts of study compound present in both perfusates at the end of a perfusion, and the sample removed during the experiment. Glucose consumption and lactate production are presented as the sum of changes (from the beginning to the end of perfusion) in total content (μmol) in both circuits, normalized by total perfusion time (min) and weight (g) of perfused cotyledon. […]
# Multiple group comparisons were performed for the glucose consumption, lactate production, β-hCG and leptin production using the non-parametric Mann–Whitney U with GraphPad Prism (version 9.3.1 for macOS; GraphPad Software). […] Data are expressed as mean ± SD of three to four independent experiments.
# [3] = system: human placental barrier
# [4] = system: BeWo cells; details: ref Spiess et al., 2022b; cited from earlier work
# [5] = in vitro; details: human, pH 7.2
# [6] = human volunteers, ref Jackson et al., 2014; cited from earlier work
# [7] = Transwell control experiments across cell-free inserts; details: data not shown
# [8] = Stability assay in PBS, perfusion medium and placental homogenates; format: in vitro ADME, human
# Protocol: In short, after spiking the various matrices with the study compounds, samples were either processed immediately for U(H)PLC-MS/MS analysis (C0), or kept at 4°C/37°C on an orbital shaker (600 rpm) for 360 min before processing for U(H)PLC-MS/MS analysis. Samples were processed via solid phase extraction or protein precipitation prior to analysis.
# [9] = system: placental tissue; test: Histopathological evaluation of perfused placentae; design: species or system human
# Protocol: Immediately after perfusion the placentae were fixed in 4% paraformaldehyde for at least 24 h. Tissue samples from representative placental tissue sections, each from perfused, non-perfused, and transitional area were prepared to perform a pathological examination. For this purpose, the tissue was embedded in paraffin, cut (∅ 2-3 µm), and stained (standard hematoxylin-eosin stain, Braun-Brenn modified Gram stain) according to the standards of routine histopathological diagnosis of the Department of Pathology and Molecular Pathology (University Hospital of Zurich). […] The blood void and width of the intervillous space and fetal blood vessels in the chorionic villi provided information about the quality of perfusion, and particular attention was paid to the presence of intravascular thrombi. General signs of degeneration, such as vacuolization of the cytotrophoblast, villous vascular endothelium viability, and formation of hydropic villous changes compared with non-perfused tissue indicated whether tissue damage might have occurred during perfusion. Microscopic effects and placental tissue damage in the perfused area were expressed in relative amounts (%) to the non-perfused tissue.
# [10] = system: BeWo b30 cells; test: in vitro; details: human, 60 min, 5 μM
# Protocol: (§1) BeWo b30 choriocarcinoma cells were obtained from Dr. Tina Buerki-Thurnherr (Empa, St. Gallen, Switzerland), with permission from Dr. Alan L. Schwartz (Washington University School of Medicine, St. Louis MO, USA), and were cultivated in F-12 K Nut Mix supplemented with 10% heat inactivated FBS, antibiotics (100 U/mL penicillin, 100 µg/mL […]), and 2 mM L-glutamine (all from Gibco). The cells were cultivated in a humidified incubator at 37°C and 5% CO2 atmosphere.
# (§2) BeWo b30 cells were cultured on Transwell® polycarbonate membrane inserts (24-well format; 0.4 μm pore size, 0.33 cm^2 cell growth area, 200 μL apical volume, 1′000 μL basolateral volume; Corning, Sigma-Aldrich) at a density of 60′000 cells/well. These inserts were then cultivated in a cellZscope (nanoAnalytics) at 37°C/5% CO2. Cell culture medium was replaced every 2 days up to 11 days to find the best possible conditions.
# (§3) BeWo b30 cells were cultured in transparent 24-well plates under the same conditions as mentioned above and transferred to the cellZscope® at day 8 to record TER and Ccl values. After 24 h (day 9) and when a TER of 30–60 Ωcm^2 was reached and Ccl was between 0.5 and 5.0 μF/cm^2, the permeability assay was initiated by adding valerenic acid (5 μM; in HBSS with 4% BSA) to the apical compartment, while the basolateral compartment contained 1′000 μL of HBSS only. […] Samples (150 μL apical, 800 μL basolateral) were collected at each time point (0, 15, 30, 60 min; one insert per time point). After 60 min, a part of the inserts was transferred back to the cellZscope® to monitor TER and Ccl values during another 24 h. The cells grown on the other part of the inserts were quickly washed with 200 μL of cold HBSS and then lysed with 700 μL acetonitrile (100 μL apical, 600 μL basolateral) for 40 min on an orbital shaker (450 rpm, room temperature) to determine the test substance cell contents.
# (§4) Apparent permeability coefficients (Papp) were calculated according to the following Eq. 1: Papp cm/s=∆Q/∆t/ACA0 (1) where ΔQ/Δt is the rate of amount transported to the receiver compartment, A is the membrane surface area (0.33 cm^2), and C A0 is the initial concentration in the apical compartment.
# (§5) The clearance values were calculated according to the following Eq. 2 ([Neuhaus et al., 2008]): Clearance μL=CBnVB/CA−VB/VA∙∑CBn−1 (2) where C Bn and V B are the concentration and volume in the basolateral compartment at a specific timepoint (n), respectively; C A and VA are the concentration and volume in the apical compartment, respectively, and C Bn-1 is the total amount of substance found in the basolateral compartment up to the previous timepoint (n-1).
# (§6) Recovery (mass balance) of each compound was calculated according to the following Eq. 3: Recovery %=CAfVA+CBfVB+CCfVC/CA0VA∙100 (3) where C Af , C Bf and C Cf are the final compound concentrations in apical, basolateral, and cellular compartments, respectively; C A0 is the initial concentration in the apical compartment, and V A , V B and V C are the volumes in the respective compartments.
# (§7) For valerenic acid, 150 µL of the IS in MeOH were added to 50 µL of sample, and the mixture centrifuged for 20 min at 13′200 rpm/16′100 rcf at 10°C (Centrifuge 5415R, Eppendorf). An aliquot (50 µL) of the supernatant was collected and transferred into HPLC vials. Vials were centrifuged for additional 20 min prior to U(H)PLC-MS/MS analysis in full loop mode (2 µL).
# [11] = in vitro; details: human
# Protocol: as §1, §2, §3, §4, §5, §6, §7
# [12] = 60 min, 5 μM
# [13] = non-perfused area of same placenta
smiles,measurement,setting,value
"Cc1cc(O)c2c(=O)c3c(O)cc(O)c4c5c(O)cc(O)c6c(=O)c7c(O)cc(C)c8c1c2c(c34)c(c78)c65 [Hypericin, hypericin]",Compound lost / adhering to the perfusion equipment,[1],3.8% and 3.8% ± 13.1%
same,Effect on β-hCG and leptin production (in words),"[2]; 5 μM, 240 min perfusion, vs antipyrine control perfusions","neither hyperforin, hypericin, nor valerenic acid inhibited their production in a statistically significant manner"
same,Transplacental transfer (in words),"[3]; 240 min perfusion, 5 μM maternal",did not cross the human placental barrier
same,Concentration in the maternal compartment,"[3]; human, 240 min, 5 μM, pH 7.2",approximately 46 % of initial concentration
same,M perfusate (% found),"[3]; maternal perfusate after 240 min, % of amount in maternal sample at beginning",36.7%
same,Concentration lowering the viability of placental cells,[4],1 µM
same,Concentration with genotoxic effects,[4],10 µM
same,Concentration with increased apoptosis / apoptotic effects,[4],1 µM
same,"recovery at 240 min, 5 μM",[5],54%
same,Plasma concentration,[6],2.2 ng/mL and 4.36 nM
same,Passage across cell-free inserts (in words),[7],did not cross the cell-free inserts to a sufficient extent
same,Stability in PBS compared to PM (in words),"[8]; 360 min, 4°C and 37°C",less stable
same,"Remaining in placental homogenate, Donor 1","[8]; human, tissue homogenate, 6 h",101.0%
same,"Remaining in placental homogenate, Donor 2","[8]; human, tissue homogenate, 6 h",82.7%
same,"Remaining in placental homogenate, Donor 3","[8]; human, tissue homogenate, 6 h",93.7%
same,Global placental pathology: Else,[9],CCB and N
same,Extravasations into villous stroma (in words),[9]; after perfusion,no extravasations into villous stroma
same,Ruptures of villous vessels (in words),[9]; after perfusion,no ruptures of villous vessels
same,Hydropic changes in non-perfused,[9]; [13],5% and 0%
same,Intervillous spaces without blood in non-perfused,[9]; [13],40% and 80%
same,Vacuolated trophoblast in villi: in non-perfused too?,[9]; [13],0%
same,Thrombi in vessels of stem villi (in words),[9]; perfused and non-perfused,no thrombi detectable
same,Intervillous spaces without blood,[9]; perfused area,90% and 95%
same,Emptiness of villous vessels,"[9]; perfused area, individual experiments",90% and 80% and 85%
"Cc1cc(=O)n(-c2ccccc2)n1C [Antipyrine, antipyrine, reference compound]",Compound lost / adhering to the perfusion equipment,[1],−2.2% and −2.2% ± 7.0%
same,Lactate production,[2],0.27 µmol/g/min
same,Leptin production,[2],2.26 ng/min
same,Total glucose consumption,[2],0.39 µmol/g/min
same,β-hCG production,[2],1.44 U/min
same,Sampling (% found),"[3]; human, 5 μM, pH 7.2",21.8 ± 1.3%
same,Time to equilibrium between fetal and maternal compartment,"[3]; human, 5 μM, pH 7.2",120 min
same,Time to equilibrium between fetal and maternal concentrations (FM ratio),"[3]; human, 5 μM, pH 7.2",90 min
same,FM ratio at 90 min,"[3]; human, 90 min, 5 μM, pH 7.2",1.03
same,FM ratio at 120 min,"[3]; human, 120 min, 5 μM, pH 7.2",0.98
same,FM ratio at 180 min,"[3]; human, 180 min, 5 μM, pH 7.2",1.05
same,FM ratio at 240 min,"[3]; human, 240 min, 5 μM, pH 7.2",0.92
same,"recovery at 240 min, 5 μM",[5],79.2%
same,Clearance across BeWo b30 cell layer,[10],35.5 µL
same,"Papp at 60 min, 5 μM",[11],28 ×10⁻⁶ cm/s
same,"recovery at 60 min, 5 μM",[11],81.9%
same,Clearance across cell-free insert,[12],33.5 µL
